Experimental data as given in BindingDB's records for doi:10.1021/jm00114a002 (Abbott Laboratories, 1991).

Assay: Compound was tested in vitro for binding affinity for 5-hydroxytryptamine 1C receptor

Ki	Compound
200 nM	NC[C@@H]1O[C@H](c2ccccc2)Cc2c1ccc(Br)c2O
58 nM	Cc1ccc2c(c1O)C[C@@H](C1CCCCC1)O[C@H]2CN
